{"source": "patent US7354754B2", "about": "“Microorganism sensitive to lysozyme” (National Institute of Advanced Industrial Science and …, priority 2002, dated 2008)", "type_in_all_cases": "cell-based", "key": {"[1]": {"tested_on": "Rhodococcus erythropolis strain L-88", "assay": "Minimum growth inhibition concentration on LB agar medium, strain L-88", "settings": "30° C., 2 days", "description": "(§1) A microorganism of the genus Rhodococcus according to the present invention is a mutant microorganism of the genus Rhodococcus, which has a higher sensitivity to lysozyme than a wild-type microorganism of the genus Rhodococcus. The microorganism of the genus Rhodococcus is not limited to a specific species and includes Rhodococcus erythropolis, Rhodococcus fascians, and Rhodococcus opacus. The wild-type microorganism of the genus Rhodococcus refers to a microorganism belonging to the genus Rhodococcus and having no genetic mutation, for example, Rhodococcus erythropolis strain JCM 3201. More specifically, the microorganism of the genus Rhodococcus according to the present invention having a higher sensitivity to lysozyme is a mutant derived from a wild-type microorganism of the genus Rhodococcus as a parent strain, and having an increased sensitivity to lysozyme compared to the parent strain. The phrase “having an increased sensitivity to lysozyme” means that cell lysis may occur at a low lysozyme concentration. […] Alternatively, the degree of sensitivity to lysozyme can be determined by adding lysozyme to a predetermined concentration of a microorganism of the genus Rhodococcus, and monitoring a change in absorbence while culturing. […]"}, "[2]": {"tested_on": "Rhodococcus erythropolis strain L-65", "assay": "Minimum growth inhibition concentration on LB agar medium, strain L-65", "settings": "30° C., 2 days", "description": "as §1"}, "[3]": {"tested_on": "Rhodococcus erythropolis strain JCM 3201", "assay": "Minimum growth inhibition concentration on LB agar medium, strain JCM 3201", "settings": "strain JCM 3201 (wild type), 30° C., 2 days", "description": "as §1"}, "[4]": {"tested_on": "Rhodococcus erythropolis wild type and mutant strain", "assay": "Comparison of wild type and mutant strain for sensitivity to antibiotics", "settings": "determined similarly to the ampicillin test", "protocol": "The sensitivity of Rhodococcus erythropolis strain L-65 and L-88 to ampicillin was determined in the same manner as in Example 1. To explain more specifically, the bacterial cells of each strain were inoculated in LB medium and cultured with shaking at 30° C. A part of the culture solution was taken in the middle of logarithmic growth period and diluted with fresh LB medium so as to contain 1×10^5, 1×10^4, 1×10^3, 1×10^2, and […] cells in 10 μl of the LB medium. The diluted culture solutions thus prepared were dropped onto each of LB agar mediums containing lysozyme in concentrations of 15, 10, 1, and 0.1 μg/ml. After the mediums were cultured at 30° C. for 2 days and the presence or absence of bacterial cells grown on the mediums was checked. In this manner, the minimum growth inhibition concentration was determined (Table 2)."}, "[5]": {"tested_on": "Rhodococcus erythropolis strain L-65", "assay": "Turbidity change of culture solution by addition of lysozyme, strain L-65", "settings": "lysozyme 12.5 μg/ml added at OD600 about 0.2, LB medium, 30° C.", "protocol": "(§2) To 100 ml of LB medium, Rhodococcus erythropolis strain L-65 was inoculated and cultured with shaking at 30° C. The absorbence (OD600) of the culture solution was measured at an absorption wavelength of 600 nm every hour from the beginning of the logarithmic growth period. When OD600 reached about 0.2, the volume of the culture solution was divided into halves. To one of them, lysozyme was added to a final concentration of 12.5 μg/ml. No lysozyme was added to the other. While both solutions were further cultured continuously, the absorbence was measured. The growth profiles of Rhodococcus erythropolis strain L-65 culture solutions with Lysozyme (12.5 μg/ml) and without lysozyme were shown by absorbence at 600 nm. When OD600 reached about 0.2, lysozyme was added (Indicated by the arrow in the figure). […] This is considered because bacterial cell lysis was caused by lysozyme."}, "[6]": {"tested_on": "Rhodococcus erythropolis strain L-88", "assay": "Turbidity change of culture solution by addition of lysozyme, strain L-88", "settings": "lysozyme 12.5 μg/ml added at OD600 about 0.2, LB medium, 30° C.", "protocol": "as §2\nThe same operation as in Example 2 was performed by use of Rhodococcus erythropolis strain L-88. The growth profiles of culture solutions of Rhodococcus erythropolis strain L-88 with lysozyme (12.5 μg/ml) and without lysozyme were shown by absorbence at 600 nm. When OD600 reached about 0.2, lysozyme was added (Indicated by the arrow in the figure). […] This is considered because bacterial cell lysis was caused by lysozyme."}, "[7]": {"tested_on": "Rhodococcus erythropolis strain L-65", "assay": "Cell lysis with lysozyme for extraction of recombinant PIP protein, strain L-65", "settings": "lysozyme 1 mg/ml, 37° C., one hour, nondenaturation buffer", "description": "A plasmid (pHN170, Nakashima and Tamura: the full length sequence is represented by SEQ ID No: 2) was constructed such that it could self-replicate in a bacterial cell of Rhodococcus erythropolis and could be induced by thiostreptone to express a proline iminopeptidase (hereinafter referred to as “PIP”) protein (T. Tamura et al., FEBS Lett. 398, 101-105 (1996)) having a 6× histidine tag at the C terminal. This plasmid was introduced into Rhodococcus erythropolis strain L-65 by an electroporation method. Transformants were screened on LB agar medium containing tetracycline (20 μg/ml). The transformants were inoculated on 4 ml of LB medium containing tetracycline (8 μg/ml) and cultured with shaking at 30° C. until the absorbence at an absorption wavelength of 600 nm reached 0.8. The entire culture solution was added to 40 ml of LB medium containing thiostreptone (1 μg/ml) and cultured with rotation in a vaned flask for 16 hours. After PIP protein was induced to express, bacterial cells were centrifugally collected at 1,500×g for 15 minutes. […] As a result, a clear band was detected near the molecular weight (34.3 KDa), which was predicted from the amino acid sequence of the 6× histidine-fused PIP protein (FIG. 5). […]"}, "[8]": {"tested_on": "Rhodococcus erythropolis strain L-88", "assay": "Cell lysis with lysozyme for extraction of recombinant PIP protein, strain L-88", "settings": "lysozyme 1 mg/ml, 37° C., one hour, nondenaturation buffer"}, "[9]": {"tested_on": "Rhodococcus erythropolis strain JCM 3201", "assay": "Cell lysis with lysozyme for extraction of recombinant PIP protein, strain JCM 3201", "settings": "lysozyme 1 mg/ml, 37° C., one hour"}, "[10]": {"tested_on": "Rhodococcus erythropolis strain JCM 3201", "assay": "Turbidity change of culture solution by addition of lysozyme, strain JCM 3201", "settings": "lysozyme 12.5 μg/ml added at OD600 about 0.2, LB medium, 30° C.", "protocol": "as §2\nThe same operation as in Example 2 was performed by use of Rhodococcus erythropolis strain JCM 3201. The growth profiles of culture solutions of Rhodococcus erythropolis strain JCM 3201 with lysozyme (12.5 μg/ml) and without lysozyme were shown by absorbence at 600 nm. When OD600 reached about 0.2, lysozyme was added (Indicated by the arrow in the figure)."}}}
{"compound": "CC1(C)S[C@@H]2[C@H](NC(=O)[C@H](N)c3ccccc3)C(=O)N2[C@H]1C(=O)O", "note": "[ampicillin, reference compound]", "values": [{"measurement": "Minimum growth-inhibiting ampicillin concentration", "setting": "[1]", "result": 1, "unit": "µg/mL"}, {"measurement": "Minimum growth-inhibiting ampicillin concentration", "setting": "[2]", "result": 1, "unit": "µg/mL"}, {"measurement": "Minimum growth-inhibiting ampicillin concentration", "setting": "[3]", "result": 15, "unit": "µg/mL"}]}
{"compound": "O=C(N[C@H](CO)[C@H](O)c1ccc([N+](=O)[O-])cc1)C(Cl)Cl", "note": "[chloramphenicol]", "values": [{"measurement": "Difference in sensitivity between wild type and mutant strain", "setting": "[4]", "result": "no significant difference was observed"}]}
{"compound": "lysozyme: lysozyme derived from egg-white (manufactured by Sigma), cell-wall lytic enzyme", "values": [{"measurement": "Change of absorbence (OD600) of culture solution after addition of lysozyme", "setting": "[5]", "result": "a sharp decrease in absorbence was observed"}, {"measurement": "Change of absorbence (OD600) of culture solution after addition of lysozyme", "setting": "[6]", "result": "a sharp decrease in absorbence was observed"}, {"measurement": "Cell lysis by lysozyme treatment (PIP band in supernatant, SDS polyacrylamide gel electrophoresis)", "setting": "[7]", "result": "Cells were lysed completely"}, {"measurement": "Cell lysis by lysozyme treatment (PIP band in supernatant, SDS polyacrylamide gel electrophoresis)", "setting": "[8]", "result": "The same phenomenon as in the case of bacterial stain L-65 is considered"}, {"measurement": "Minimum growth-inhibiting lysozyme concentration", "setting": "[1]", "result": 12.5, "unit": "µg/mL"}, {"measurement": "Minimum growth-inhibiting lysozyme concentration", "setting": "[3]", "result": ">400", "unit": "µg/mL"}, {"measurement": "Cell lysis by lysozyme treatment (PIP band in supernatant, SDS polyacrylamide gel electrophoresis)", "setting": "[9]; strain JCM 3201, nondenaturation buffer, no ampicillin", "result": "cell lysis rarely takes place"}, {"measurement": "Cell lysis by lysozyme treatment (PIP band in supernatant, SDS polyacrylamide gel electrophoresis)", "setting": "[9]; strain JCM 3201 treated with ampicillin 600 μg/ml for 2 hours before cell collection", "result": "cell lysis takes place even in nondenaturation conditions"}, {"measurement": "Change of absorbence (OD600) of culture solution after addition of lysozyme", "setting": "[10]", "result": "the same tendency of growth was observed"}]}
{"compound": "thiostreptone", "values": [{"measurement": "Difference in sensitivity between wild type and mutant strain", "setting": "[4]", "result": "no significant difference was observed"}]}
